According to ChEMBL document CHEMBL1150470, “The synthesis and cognition enhancing effects of a series of dibenzoyl guanidines. Analogs of N,N-[[4-(aminocarbonyl)phenyl]carbonimidoyl]bis[benzamide]” (1992):
Activity calls are given as the source filed them. The calls are words filed in the database; no cut-off is given here.

Columns and labels:
Mus musculus [1] = assay: Evaluated for hypoxic survival activity in mice after intraperitoneal administration at 10 mg/kg dose; 45-55; assay type: functional; settings: ip
Mus musculus [2] = assay: The compound was evaluated for improvement of anoxic amnesia in mice after ip administration at 25 mg/kg dose; assay type: functional; settings: route intraperitoneal
Mus musculus [3] = assay: Evaluated for hypoxic survival activity in mice after intraperitoneal administration at 100 mg/kg dose; 30-95; assay type: functional; settings: ip
Mus musculus [4] = assay: Evaluated for hypoxic survival activity in mice after intraperitoneal administration at 100 mg/kg dose; assay type: functional; settings: ip
Mus musculus [5] = assay: Evaluated for hypoxic survival activity in mice after intraperitoneal administration at 10 mg/kg dose; 50-50; assay type: functional; settings: ip
Mus musculus [6] = assay: The compound was evaluated for improvement of anoxic amnesia in mice after ip administration at 10 mg/kg dose; 74-(-19); assay type: functional; settings: route intraperitoneal
Mus musculus [7] = assay: The compound was evaluated for improvement of anoxic amnesia in mice after ip administration at 100 mg/kg dose; assay type: functional; settings: route intraperitoneal
Mus musculus [8] = assay: Evaluated for hypoxic survival activity in mice after intraperitoneal administration at 50 mg/kg dose; 35-50; assay type: functional; settings: ip
Mus musculus [9] = assay: The compound was evaluated for improvement of anoxic amnesia in mice after ip administration at 10 mg/kg dose; assay type: functional; settings: route intraperitoneal
Mus musculus [10] = assay: Evaluated for hypoxic survival activity in mice after intraperitoneal administration at 10 mg/kg dose; assay type: functional; settings: ip
Mus musculus [11] = assay: Evaluated for hypoxic survival activity in mice after intraperitoneal administration at 0.125 mg/kg dose; 60-80; assay type: functional; settings: ip
Mus musculus [12] = assay: Evaluated for hypoxic survival activity in mice after intraperitoneal administration at 100 mg/kg dose; 5-45; assay type: functional; settings: ip
Mus musculus [13] = assay: Evaluated for hypoxic survival activity in mice after intraperitoneal administration at 100 mg/kg dose; 15-50; assay type: functional; settings: ip
Mus musculus [14] = assay: Evaluated for hypoxic survival activity in mice after intraperitoneal administration at 100 mg/kg dose; 55-80; assay type: functional; settings: ip
Mus musculus [15] = assay: The compound was evaluated for improvement of anoxic amnesia in mice after ip administration at 100 mg/kg dose; Inactive; assay type: functional, organism-based; design: dose 100 mg/kg
Mus musculus [16] = assay: Evaluated for hypoxic survival activity in mice after intraperitoneal administration at 25 mg/kg dose; 5-55; assay type: functional; settings: ip
Mus musculus [17] = assay: The compound was evaluated for improvement of anoxic amnesia in mice after ip administration at 50 mg/kg dose; assay type: functional; settings: route intraperitoneal
Mus musculus [18] = assay: Evaluated for hypoxic survival activity in mice after intraperitoneal administration at 25 mg/kg dose; 55-65; assay type: functional; settings: ip
Mus musculus [19] = assay: Evaluated for hypoxic survival activity in mice after intraperitoneal administration at 10 mg/kg dose; 50-80; assay type: functional; settings: ip
Mus musculus [20] = assay: Evaluated for hypoxic survival activity in mice after intraperitoneal administration at 100 mg/kg dose; 65-80; assay type: functional; settings: ip
Mus musculus [21] = assay: Evaluated for hypoxic survival activity in mice after intraperitoneal administration at 50 mg/kg dose; assay type: functional; settings: ip
Mus musculus [22] = assay: The compound was evaluated for improvement of anoxic amnesia in mice after ip administration at 10 mg/kg dose; Inactive; assay type: functional, organism-based; design: dose 10 mg/kg
Mus musculus [23] = assay: Evaluated for hypoxic survival activity in mice after intraperitoneal administration at 10 mg/kg dose; 40-55; assay type: functional; settings: ip
Mus musculus [24] = assay: The compound was evaluated for improvement of anoxic amnesia in mice after ip administration at 50 mg/kg dose; 53, -8, 102; assay type: functional; settings: route intraperitoneal
Mus musculus [25] = assay: Evaluated for hypoxic survival activity in mice after intraperitoneal administration at 100 mg/kg dose; 95-95; assay type: functional; settings: ip
Mus musculus [26] = assay: The compound was evaluated for improvement of anoxic amnesia in mice after ip administration at 50-200 mg/kg dose; Inactive; assay type: functional, organism-based
Mus musculus [27] = assay: Evaluated for hypoxic survival activity in mice after intraperitoneal administration at 100 mg/kg dose; 35-50; assay type: functional; settings: ip
Mus musculus [28] = assay: Evaluated for hypoxic survival activity in mice after intraperitoneal administration at 100 mg/kg dose; 45-70; assay type: functional; settings: ip
Mus musculus [29] = assay: The compound was evaluated for improvement of anoxic amnesia in mice after ip administration at 50 mg/kg dose; 33-76; assay type: functional; settings: route intraperitoneal
Mus musculus [30] = assay: Evaluated for hypoxic survival activity in mice after po administration of 100 mg/kg dose; assay type: functional
Mus musculus [31] = assay: Evaluated for hypoxic survival activity in mice after intraperitoneal administration at 25 mg/kg dose; 25-55; assay type: functional; settings: ip
Mus musculus [32] = assay: Evaluated for hypoxic survival activity in mice after intraperitoneal administration at 100 mg/kg dose; 40-40; assay type: functional; settings: ip

In the case of `NC(=O)c1ccc(N/C(=N\C(=O)c2ccccc2)NC(=O)c2cccc(Br)c2)cc1`, the survival at 10 mg/kg (Mus musculus [1]) was 50% and the Improvement (Mus musculus [2]) was 118%.
`NC(=O)c1ccc(N/C(=N\C(=O)c2ccccc2)NC(=O)c2cccc([N+](=O)[O-])c2)cc1` showed a survival at 100 mg/kg (Mus musculus [3]) of 60%.
Work on `Cc1cccc(C(=O)N/C(=N/C(=O)c2ccccc2)Nc2ccc(C(N)=O)cc2)c1` yielded a survival at 100 mg/kg (Mus musculus [4]) of 25%.
`COc1ccc(C(=O)N/C(=N/C(=O)c2ccccc2)Nc2ccc(C(N)=O)cc2)cc1` was tested, and the survival at 10 mg/kg (Mus musculus [5]) was 50% and the Improvement (Mus musculus [6]) was 28%.
`Cc1cccc(C(=O)/N=C(/NC(=O)c2cccc(C)c2)Nc2ccc(C(N)=O)cc2)c1` showed an Improvement (Mus musculus [7]) of 20% and a survival at 50 mg/kg (Mus musculus [8]) of 40%.
`COc1ccc(C(=O)/N=C(/NC(=O)c2cccc(C)c2)Nc2ccc(C(N)=O)cc2)cc1` showed a survival at 10 mg/kg (Mus musculus [1]) of 50% and an Improvement (Mus musculus [9]) of 28%.
`NC(=O)c1ccc(N/C(=N\C(=O)c2ccccc2)NC(=O)c2ccccc2C(F)(F)F)cc1` was tested, and the survival at 10 mg/kg (Mus musculus [10]) was 5%.
Work on `CNC(=O)Oc1ccc2c(c1)[C@]1(C)CCN(C)[C@@H]1N2C` [PHYSOSTIGMINE] yielded a survival at 0.125 mg/kg (Mus musculus [11]) of 60%.
With `COc1ccc(C(=O)/N=C(/NC(=O)c2ccc(OC)cc2)Nc2ccc(C(N)=O)cc2)cc1` the survival at 10 mg/kg (Mus musculus [10]) was 15%.
`NC(=O)c1ccc(N/C(=N\C(=O)c2ccccc2)NC(=O)c2cccc(C(F)(F)F)c2)cc1` was tested, and the survival at 10 mg/kg (Mus musculus [10]) was 15%.
With `NC(=O)c1ccc(N/C(=N\C(=O)c2ccccc2)NC(=O)c2ccc([N+](=O)[O-])cc2)cc1` the survival at 100 mg/kg (Mus musculus [12]) was 25%.
For `N#Cc1ccc(C(=O)N/C(=N/C(=O)c2ccccc2)Nc2ccc(C(N)=O)cc2)cc1`, the survival at 100 mg/kg (Mus musculus [13]) was 38%.
`Cc1ccc(C(=O)N/C(=N/C(=O)c2ccccc2)Nc2ccc(C(N)=O)cc2)cc1` was tested, and the survival at 10 mg/kg (Mus musculus [10]) was 5%.
With `COc1ccc(C(=O)/N=C(/NC(=O)c2cccc(Cl)c2)Nc2ccc(C(N)=O)cc2)cc1` the survival at 10 mg/kg (Mus musculus [10]) was 15%.
`NC(=O)c1ccc(N/C(=N\C(=O)c2ccc(F)cc2)NC(=O)c2cccc(F)c2)cc1` was tested, and the survival at 100 mg/kg (Mus musculus [14]) was 68% and the Improvement (Mus musculus [15]) was “inactive”.
For `NC(=O)c1ccc(N/C(=N\C(=O)c2ccccc2)NC(=O)c2ccc(F)cc2)cc1`, the survival at 25 mg/kg (Mus musculus [16]) was 35%.
For `NC(=O)c1ccc(N/C(=N\C(=O)c2ccccc2)NC(=O)c2ccc(Br)cc2)cc1`, the Improvement (Mus musculus [17]) was 12% and the survival at 25 mg/kg (Mus musculus [18]) was 60%.
Work on `CCOc1cccc(C(=O)N/C(=N/C(=O)c2ccccc2)Nc2ccc(C(N)=O)cc2)c1` yielded a survival at 10 mg/kg (Mus musculus [19]) of 67%.
With `CC(C)(C)c1ccc(C(=O)N/C(=N/C(=O)c2ccccc2)Nc2ccc(C(N)=O)cc2)cc1` the survival at 100 mg/kg (Mus musculus [20]) was 72%.
`COc1ccc(C(=O)/N=C(/NC(=O)c2ccc(C(F)(F)F)cc2)Nc2ccc(C(N)=O)cc2)cc1` was tested, and the survival at 50 mg/kg (Mus musculus [21]) was 55%.
With `CN(C)CCOc1ccc(C(=O)N/C(=N/C(=O)c2ccccc2)Nc2ccc(C(N)=O)cc2)cc1` the Improvement (Mus musculus [22]) was “inactive” and the survival at 10 mg/kg (Mus musculus [23]) was 48%.
With `NC(=O)c1ccc(N/C(=N\C(=O)c2ccccc2)NC(=O)c2cccc(Cl)c2)cc1` the Improvement (Mus musculus [24]) was 49% and the survival at 100 mg/kg (Mus musculus [25]) was 95%.
Compound `NC(=O)c1ccc(N/C(=N\C(=O)c2ccc(F)cc2)NC(=O)c2cccc(Cl)c2)cc1` has a survival at 10 mg/kg (Mus musculus [10]) of 25%.
`COc1ccc(C(=O)/N=C(/NC(=O)c2ccc(F)cc2)Nc2ccc(C(N)=O)cc2)cc1` was tested, and the Improvement (Mus musculus [26]) was “inactive” and the survival at 100 mg/kg (Mus musculus [27]) was 42%.
`NC(=O)c1ccc(N/C(=N\C(=O)c2ccccc2)NC(=O)c2ccccc2)cc1` showed a survival at 100 mg/kg (Mus musculus [28]) of 57%, an Improvement (Mus musculus [29]) of 50% and a survival at 100 mg/kg (Mus musculus [30]) of 48%.
For `NC(=O)c1ccc(N/C(=N\C(=O)c2ccc(F)cc2)NC(=O)c2ccc(Br)cc2)cc1`, the survival at 25 mg/kg (Mus musculus [31]) was 40%.
`NC(=O)c1ccc(N/C(=N\C(=O)c2ccccc2)NC(=O)c2ccc(C(F)(F)F)cc2)cc1` was tested, and the survival at 100 mg/kg (Mus musculus [32]) was 40%.
In the case of `COc1ccc(C(=O)/N=C(/NC(=O)c2ccc(C)cc2)Nc2ccc(C(N)=O)cc2)cc1`, the Improvement (Mus musculus [26]) was “inactive” and the survival at 100 mg/kg (Mus musculus [4]) was 43%.
Compound `NC(=O)c1ccc(N/C(=N\C(=O)c2cccc(C(F)(F)F)c2)NC(=O)c2cccc(C(F)(F)F)c2)cc1` has a survival at 100 mg/kg (Mus musculus [4]) of 5%.
